Measured values reported in patent publication US10730922B2, “Composition and method for affecting the binding of antigen-binding polypeptides to antigens” (Miltenyi Biotec GmbH, priority 2016, dated 2020).

Assays:
Type in all cases: binding, human
[1] = Competitive staining of anti-CD14-Biotin prestained PBMC with anti-Biotin scFv-CaM-fusions, flow cytometry; settings: opposite relative to M13 peptide, FIG. 7B
From the text: (§1) To investigate whether the linkers identified to provide modulation of binding in scFv D1.3 can be used as a “universal” module to change binding properties in other scFv fragments than D1.3, the characterized CaM-linker variants were cloned into other scFv antibodies with different specificities. The specificities were chosen according to their utility in future cell staining and separation applications, with two scFvs directed against different human clusters of differentiation (CD14, CD4) and the small hapten biotin. To identify M13 peptide-dependent scFv-CaM-variants for those specificities, human blood cells (PBMC) were stained using purified scFvs and subsequently analysed by flow cytometry. Bound scFvs were detected with fluorescently labeled anti-His-antibodies.
The production and purification of different scFv-fusions was performed as described in Example 3. […]
(§2) Calmodulin binds to a variety of binding partners. […] On the one hand, 38 mutated variants of the M13 peptide were analysed, e.g. substitution mutants known to have higher affinities for calmodulin, truncated variants and combinations thereof. In addition, 29 peptides derived from further calmodulin-binding proteins like calcium ATPase, spectrin and nitric oxidase synthase were analysed with regard to potential binding modulating properties. […]

CD4 = assay: Competitive staining of PBMC with anti-CD4 scFv-CaM-fusions, flow cytometry; settings: FIG. 7C
From the text: as §1
(§3) The production and purification of different scFv-fusions was performed as described in Example 3. All antibodies and staining reagents used for flow cytometry applications were from Miltenyi Biotec (Bergisch Gladbach, Germany). For stainings with anti-Biotin scFv-variants, PBMC (peripheral blood mononuclear cells) were prestained with appropriate IgG-conjugates. The stainings were performed in 1.5 mL microtubes. 1×10^6 PBMC per sample were incubated on ice for 10 min in 110 μL 1×B-TBS (1×TBS+0.5% [w/v] bovine serum albumin)+5 mM CaCl2 (pH 7.4) containing anti-CD14-Biotin (dilution: 1:11). The reaction was stopped by addition of 1 mL buffer and centrifugation at 300 g for 5 min at 4° C. The supernatant was removed completely and the pellet was stored on ice and resuspended in buffer immediately before the next staining step. The following stainings were performed in 96-well polypropylene plates. Purified scFvs were diluted to appropriate concentrations in 50 μL 1×B-TBS/5 mM CaCl2 (pH 7.4 [anti-Biotin] or pH 8.0 [anti-CD14, anti-CD4]) per well. For competitive screenings, peptide (M13 peptide [Anaspec, Fremont, USA], M13-variants library and CBP (calmodulin-binding peptide) library [Genscript, Piscataway, USA]) was added in molar excess in a total volume of 5 μL per well, whereas the control stainings were supplied with 5 μL 1×B-TBS/5 mM CaCl2. The diluted scFvs were preincubated for 45 min at RT and afterwards chilled on ice for 5 min. […]
as §2

CD14 = assay: Competitive staining of PBMC with anti-CD14 scFv-CaM-fusions, flow cytometry; settings: peptide in molar excess, FIG. 7A
From the text: as §1, §3, §2

CBP-Var6: another derivative of calcium-transporting ATPase (RGQILWFRGLNRIQTQIKVVNAFS; CBP-Var6; peptide derived from protein of Gallus gallus)
switching behaviour, anti-Biotin scFv-CaM-fusions M-1, M-2 [1]: opposite switching behaviour
change in fluorescence intensity, anti-CD4 scFv M-variants (CD4; relative to M13 peptide): further increase in fluorescence intensity

CBP-Var8: calmodulin-binding peptide, a derivative of spectrin (KTASPWKSARLMVHTVATFNSIKE; CBP-Var8; peptide from protein of Homo sapiens)
signal change compared to M13 peptide, anti-CD14 scFv C-terminally permutated and linear variant (CD14): slightly higher decrease

CBP-Var10: derived from ionotropic glutamate receptor NMDA1 (KKKATFRAITSTLASSFKRRRSSK; CBP-Var10; peptide from protein of Homo sapiens)
change in binding signal, linear anti-CD4 scFv clone (CD4): unexpected decrease in binding signal

M13 peptide: calmodulin-binding peptide M13 (residues 577-602 of skeletal muscle myosin light chain kinase) [reference compound]
change in binding signal, linear anti-CD4 scFv clone (CD4): did not have any influence at all
change in binding signal, C-terminally permutated clones of anti-CD4 scFv (CD4; peptide in molar excess, 'the same effect' refers to further increase in fluorescence intensity): increase in binding signal

M13-Var5: variant of the known high affinity mutant of M13 (RWKKAFIAVSAANRFKKIS; M13-Var5)
signal change compared to M13 peptide, anti-CD14 scFv clones permutated in the middle of CaM and linear clone (CD14): higher signal decrease

M13-Var6: variant of the known high affinity mutant of M13 (WKKAFIAVSAANRFKKIS; M13-Var6)
signal change compared to M13 peptide, anti-CD14 scFv clones permutated in the middle of CaM and linear clone (CD14): higher signal decrease

M13-Var7: variant of the known high affinity mutant of M13 (RWKKAFIAVSAANRFKKI; M13-Var7)
signal change compared to M13 peptide, anti-CD14 scFv clones permutated in the middle of CaM and linear clone (CD14): higher signal decrease
